Test results taken from the supplement of paper PMC8612539.
In brackets after ≈: the same amount, converted by molar mass.

Test system: Mannheimia haemolytica
Assay: minimum inhibitory concentration (MIC)
Method: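 Broth microdilution MIC (Sensititre BOPO7F bovine plate, CLSI methods) of 19 antimicrobials against field isolates of P. multocida, M. haemolytica, H. somni (deep nasopharyngeal swabs) and E. coli, Enterococcus spp. (rectal swabs) from weaned dairy heifers. Incubation 16-24 h at 35 C. MIC is the lowest concentration preventing visible growth. Values with <= or > lie at the tested range limits. Trimethoprim-sulfamethoxazole is given as the trimethoprim component of a 1:19 mixture.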

CNC(C)C1CCC(N)C(OC2C(N)CC(N)C(OC3OCC(C)(O)C(NC)C3O)C2O)O1 (stereo not given) [Gentamicin]
Settings | minimum inhibitory concentration [µg/mL]
isolate (source animal id): 8 | 2 (≈ 4.19 µM)
isolate (source animal id): 13 | 2 (≈ 4.19 µM)
isolate (source animal id): 18 | 2 (≈ 4.19 µM)
isolate (source animal id): 21 | 2 (≈ 4.19 µM)
isolate (source animal id): 25 | 4 (≈ 8.38 µM)
isolate (source animal id): 27 | 4 (≈ 8.38 µM)
isolate (source animal id): 28 | 2 (≈ 4.19 µM)
isolate (source animal id): 30 | 2 (≈ 4.19 µM)
isolate (source animal id): 31 | 4 (≈ 8.38 µM)
isolate (source animal id): 32 | 4 (≈ 8.38 µM)
isolate (source animal id): 34 | 4 (≈ 8.38 µM)
isolate (source animal id): 36 | 4 (≈ 8.38 µM)
isolate (source animal id): 37 | 4 (≈ 8.38 µM)
isolate (source animal id): 40 | 4 (≈ 8.38 µM)
isolate (source animal id): 41 | 2 (≈ 4.19 µM)
isolate (source animal id): 43 | 4 (≈ 8.38 µM)
isolate (source animal id): 46 | 4 (≈ 8.38 µM)
isolate (source animal id): 49 | 4 (≈ 8.38 µM)
isolate (source animal id): 50 | 4 (≈ 8.38 µM)
isolate (source animal id): 51 | 2 (≈ 4.19 µM)
isolate (source animal id): 52 | 2 (≈ 4.19 µM)
isolate (source animal id): 53 | 4 (≈ 8.38 µM)
isolate (source animal id): 55 | 2 (≈ 4.19 µM)
isolate (source animal id): 56 | 2 (≈ 4.19 µM)
isolate (source animal id): 57 | 16 (≈ 33.5 µM)
isolate (source animal id): 100 | 4 (≈ 8.38 µM)
isolate (source animal id): 103 | 4 (≈ 8.38 µM)
isolate (source animal id): 107 | 4 (≈ 8.38 µM)
isolate (source animal id): 108 | 4 (≈ 8.38 µM)
isolate (source animal id): 112 | 2 (≈ 4.19 µM)
isolate (source animal id): 113 | 16 (≈ 33.5 µM)
isolate (source animal id): 121 | 4 (≈ 8.38 µM)
isolate (source animal id): 122 | 4 (≈ 8.38 µM)
isolate (source animal id): 123 | 16 (≈ 33.5 µM)
isolate (source animal id): 126 | 4 (≈ 8.38 µM)
isolate (source animal id): 133 | 2 (≈ 4.19 µM)
isolate (source animal id): 135 | > 16
isolate (source animal id): 138 | 4 (≈ 8.38 µM)
isolate (source animal id): 141 | 16 (≈ 33.5 µM)
isolate (source animal id): 142 | 4 (≈ 8.38 µM)
isolate (source animal id): 145 | 4 (≈ 8.38 µM)
isolate (source animal id): 149 | 2 (≈ 4.19 µM)
isolate (source animal id): 151 | 2 (≈ 4.19 µM)
isolate (source animal id): 152 | 2 (≈ 4.19 µM)
isolate (source animal id): 154 | 2 (≈ 4.19 µM)
isolate (source animal id): 159 | 4 (≈ 8.38 µM)
isolate (source animal id): 162 | 4 (≈ 8.38 µM)
isolate (source animal id): 170 | 4 (≈ 8.38 µM)
isolate (source animal id): 171 | 2 (≈ 4.19 µM)
isolate (source animal id): 172 | 4 (≈ 8.38 µM)
isolate (source animal id): 173 | 4 (≈ 8.38 µM)
isolate (source animal id): 179 | 4 (≈ 8.38 µM)
isolate (source animal id): 180 | 2 (≈ 4.19 µM)
isolate (source animal id): 183 | 2 (≈ 4.19 µM)
isolate (source animal id): 186 | 4 (≈ 8.38 µM)
isolate (source animal id): 187 | 2 (≈ 4.19 µM)
isolate (source animal id): 188 | 2 (≈ 4.19 µM)
isolate (source animal id): 190 | 2 (≈ 4.19 µM)
isolate (source animal id): 191 | 4 (≈ 8.38 µM)
isolate (source animal id): 192 | 2 (≈ 4.19 µM)
isolate (source animal id): 201 | 2 (≈ 4.19 µM)
isolate (source animal id): 202 | 4 (≈ 8.38 µM)
isolate (source animal id): 209 | 4 (≈ 8.38 µM)
isolate (source animal id): 211 | 2 (≈ 4.19 µM)
isolate (source animal id): 220 | 4 (≈ 8.38 µM)
isolate (source animal id): 221 | 4 (≈ 8.38 µM)
isolate (source animal id): 223 | 4 (≈ 8.38 µM)
isolate (source animal id): 233 | 4 (≈ 8.38 µM)
isolate (source animal id): 237 | 4 (≈ 8.38 µM)
isolate (source animal id): 241 | 4 (≈ 8.38 µM)
isolate (source animal id): 252 | 4 (≈ 8.38 µM)
isolate (source animal id): 253 | 4 (≈ 8.38 µM)
isolate (source animal id): 259 | 2 (≈ 4.19 µM)
isolate (source animal id): 260 | 4 (≈ 8.38 µM)
isolate (source animal id): 262 | 2 (≈ 4.19 µM)
isolate (source animal id): 282 | 2 (≈ 4.19 µM)
isolate (source animal id): 287 | 4 (≈ 8.38 µM)
isolate (source animal id): 288 | 2 (≈ 4.19 µM)
isolate (source animal id): 291 | 2 (≈ 4.19 µM)
isolate (source animal id): 293 | 4 (≈ 8.38 µM)
isolate (source animal id): 298 | 2 (≈ 4.19 µM)
isolate (source animal id): 299 | 2 (≈ 4.19 µM)
isolate (source animal id): 300 | 2 (≈ 4.19 µM)
isolate (source animal id): 302 | 2 (≈ 4.19 µM)
isolate (source animal id): 304 | 2 (≈ 4.19 µM)
isolate (source animal id): 306 | 2 (≈ 4.19 µM)
isolate (source animal id): 308 | 2 (≈ 4.19 µM)
isolate (source animal id): 309 | 2 (≈ 4.19 µM)
isolate (source animal id): 313 | 4 (≈ 8.38 µM)
isolate (source animal id): 318 | 2 (≈ 4.19 µM)
isolate (source animal id): 320 | 2 (≈ 4.19 µM)
isolate (source animal id): 321 | 4 (≈ 8.38 µM)
isolate (source animal id): 323 | 2 (≈ 4.19 µM)
isolate (source animal id): 324 | 4 (≈ 8.38 µM)
isolate (source animal id): 326 | 4 (≈ 8.38 µM)
isolate (source animal id): 328 | 4 (≈ 8.38 µM)
isolate (source animal id): 329 | 4 (≈ 8.38 µM)
isolate (source animal id): 333 | 4 (≈ 8.38 µM)
isolate (source animal id): 335 | 4 (≈ 8.38 µM)
isolate (source animal id): 338 | 4 (≈ 8.38 µM)
